Reference: PubChem BioAssay (NCI)
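Protocol summary: plate cells (96-well), add compound at 5 concentrations, incubate 48 h, interpolate endpoints linearly. GI50 is the concentration that inhibits growth by half. TGI denotes the concentration required for complete inhibition of growth.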

Tests used:
Test in all cases: NCI anticancer screen, dose series, 48 h
CCRF-CEM leukemia = tested on: CCRF-CEM leukemia
SW-620 colon = tested on: SW-620 colon
OVCAR-3 ovarian = tested on: OVCAR-3 ovarian
HT29 colon = tested on: HT29 colon
EKVX NSCLC = tested on: EKVX NSCLC
NCI/ADR-RES ovarian = tested on: NCI/ADR-RES ovarian
HOP-62 NSCLC = tested on: HOP-62 NSCLC
OVCAR-4 ovarian = tested on: OVCAR-4 ovarian
SF-295 CNS = tested on: SF-295 CNS
MALME-3M melanoma = tested on: MALME-3M melanoma

| SMILES | GI50 (CCRF-CEM leukemia) | TGI (CCRF-CEM leukemia) | GI50 (SW-620 colon) | TGI (SW-620 colon) | GI50 (OVCAR-3 ovarian) | TGI (OVCAR-3 ovarian) | GI50 (HT29 colon) | TGI (HT29 colon) | GI50 (EKVX NSCLC) | TGI (EKVX NSCLC) | GI50 (NCI/ADR-RES ovarian) | TGI (NCI/ADR-RES ovarian) | GI50 (HOP-62 NSCLC) | TGI (HOP-62 NSCLC) | GI50 (OVCAR-4 ovarian) | TGI (OVCAR-4 ovarian) | GI50 (SF-295 CNS) | TGI (SF-295 CNS) | TGI (MALME-3M melanoma) | GI50 (MALME-3M melanoma) |
| --- | --- | --- | --- | --- | --- | --- | --- | --- | --- | --- | --- | --- | --- | --- | --- | --- | --- | --- | --- | --- |
| Cc1nc2ccccn2c1NC(=O)NNC(=S)Nc1ccc(F)cc1 | > 100 µM | > 100 µM | > 100 µM | > 100 µM | > 100 µM | > 100 µM | > 100 µM | > 100 µM | > 100 µM | > 100 µM | > 100 µM | > 100 µM | > 100 µM | > 100 µM | > 100 µM | > 100 µM | > 100 µM | > 100 µM |  |  |
| COc1cc(C(C)c2cc3c(cc2OCCNC(=O)COc2cc4c(cc2C(C)c2cc(OC)c(OC)c(OC)c2)OCO4)OCO3)cc(OC)c1OC (stereo not drawn) |  | > 100 µM |  | > 100 µM |  | > 100 µM |  | > 100 µM |  | > 100 µM |  |  |  | > 100 µM |  | > 100 µM |  | > 100 µM | > 100 µM |  |
| CCCN(CCC)C(=O)c1nc(N)nc(-c2ccc(OC)cc2)c1-c1ccc(OC)cc1 |  | > 100 µM |  | > 100 µM |  | > 100 µM |  | > 100 µM |  | > 100 µM |  |  |  |  |  | > 100 µM |  | > 100 µM | > 100 µM |  |
| O=C1CNC(=O)c2[nH]cnc2N1 |  | > 100 µM |  | > 100 µM |  | > 100 µM |  | > 100 µM |  | > 100 µM |  |  |  |  |  | > 100 µM |  | > 100 µM | > 100 µM |  |
| CCOc1ccc(NCC2CC/C(=C\c3ccccc3OC)C2=O)cc1 (stereo not drawn) |  | 7.22 µM |  | 14.3 µM |  | 17.1 µM |  | 7.78 µM |  | 31.9 µM |  |  |  | > 57.8 µM |  | 12.8 µM |  | 32.3 µM | 27.6 µM |  |
| C/C(CC(=O)Nc1ccccc1C)=N/NS(=O)(=O)c1ccc(C)cc1 |  | > 100 µM |  | > 100 µM |  | > 100 µM |  | > 100 µM |  | > 100 µM |  |  |  | > 100 µM |  |  |  | > 100 µM | > 100 µM |  |
| Cc1ccc(S(=O)(=O)OC(COC(=O)c2ccccc2)C(OS(=O)(=O)c2ccc(C)cc2)C(OS(=O)(=O)c2ccc(C)cc2)C(COC(=O)c2ccccc2)OS(=O)(=O)c2ccc(C)cc2)cc1 (stereo not drawn) |  | > 100 µM |  | > 100 µM |  | > 100 µM |  | > 100 µM |  | > 100 µM |  |  |  | > 100 µM |  | > 100 µM |  | > 100 µM | > 100 µM |  |
| CC(C(=O)c1ccccc1)C1(O)C(=O)Nc2ccc(Cl)cc21 (stereo not drawn) |  |  |  | > 100 µM |  | > 100 µM |  | > 100 µM |  | > 100 µM |  |  |  | > 100 µM |  | 77.8 µM |  | > 100 µM | > 100 µM |  |
| COC(=O)C1CC(OC(C)=O)C=C2C(=O)CCC21 (stereo not drawn) |  | 34.4 µM |  | 39.4 µM |  | 31.2 µM |  |  |  |  |  |  |  | 61 µM |  | 45.1 µM |  |  | 63.8 µM |  |
| CCCCCCCC(=O)SCC/C=C/[C@@H]1CC(=O)NCc2nc(cs2)C2=N[C@@](C)(CS2)C(=O)N[C@@H](C(C)C)C(=O)N1 | 0.0265 µM | > 100 µM | 0.0645 µM | 5.57 µM | 0.015 µM | 0.806 µM | < 0.01 µM | 0.0499 µM | 0.0662 µM | > 100 µM | 26.7 µM | > 100 µM | 0.0321 µM | 13.1 µM | 0.0212 µM | > 100 µM | 0.0392 µM | 0.402 µM |  |  |
| CCOC(=O)C1=C(C)N(NC(N)=O)C2(N)N(NC(N)=O)C(C)=C(C(=O)OCC)C12C(=O)OCC (stereo not drawn) |  |  |  | > 100 µM |  | > 100 µM |  | > 100 µM |  | > 100 µM |  |  |  | > 100 µM |  | > 100 µM |  | > 100 µM | > 100 µM |  |
| COC1CCC(OC)C(C2(C3CC(OC)CCC3OC)OC(=O)c3ccccc32)C1 (stereo not drawn) |  |  |  | > 100 µM |  | > 100 µM |  | > 100 µM |  | > 100 µM |  |  |  | > 100 µM |  | > 100 µM |  | > 100 µM | > 100 µM |  |
| Cc1cc(C)c(C(=O)O)c(SSc2cc(C)cc(C)c2C(=O)O)c1 |  | > 100 µM |  | > 100 µM |  |  |  | > 100 µM |  | > 100 µM |  |  |  | > 100 µM |  | > 100 µM |  | > 100 µM | > 100 µM |  |
| O=C(Nc1ccccc1-c1nn(CN2CCNCC2)c(=S)n(CN2CCNCC2)c1=O)C(F)(F)F |  | 45.2 µM |  | 22.2 µM |  | 49.9 µM |  | 57.5 µM |  | 32.2 µM |  |  |  | 46.6 µM |  | 35.2 µM |  | 76.5 µM | 32.9 µM |  |
| O=C1C(=O)c2ccccc2C(O)=C1CCCc1ccc(C2CCCCC2)cc1 |  |  | 4.36 µM | 19.5 µM | 0.96 µM | 15.2 µM | 5.11 µM | > 100 µM | 3.22 µM | 20.9 µM | 5.66 µM | 76.5 µM | 7.2 µM | 23 µM | 3.23 µM | > 100 µM | 1.89 µM | 6.36 µM | 51 µM | 3.55 µM |
| COc1ccc2oc(-c3ccc(OC)c(OC)c3OC)cc(=O)c2c1 |  | > 100 µM |  | > 100 µM |  | > 100 µM |  | > 100 µM |  | > 100 µM |  |  |  | > 100 µM |  | > 100 µM |  | > 100 µM | > 100 µM |  |
| O=C1C=Cc2c1ccc1ccccc21 | 14.8 µM | 43.9 µM | 44.3 µM | > 100 µM |  |  | 58.8 µM | > 100 µM | 12.6 µM | 61.3 µM | 31.9 µM | > 100 µM | 14.3 µM | 50 µM | 75.2 µM | > 100 µM | 20.8 µM | 63.6 µM |  |  |
| CN(C)CCCC1(c2ccc(F)cc2)OCc2cc(-c3cc4ccccc4s3)ccc21 (stereo not drawn) |  |  | 1.74 µM | 3.4 µM | 1.67 µM | 3.19 µM | 1.67 µM | 3.11 µM | 1.66 µM | 3.07 µM | 1.74 µM | 3.25 µM | 1.6 µM | 3 µM | 1.94 µM | 3.52 µM | 1.91 µM | 3.6 µM | 2.98 µM | 1.54 µM |
| NCCNC(=O)c1cccc2cc3ccccc3nc12 |  |  |  | > 34.1 µM |  | 15.4 µM |  | 6.5 µM |  | 17.5 µM |  |  |  | 5.02 µM |  | 15.2 µM |  | > 20.9 µM | 3.29 µM |  |
| C=CCC1(C(=O)OC(C)(C)C)C(OC)=C(C(=O)OC(C)(C)C)C2C1C(C(=O)OC(C)(C)C)=C(OC)C2(CC=C)C(=O)OC(C)(C)C (stereo not drawn) |  | > 100 µM |  | > 100 µM |  | > 100 µM |  |  |  | > 100 µM |  |  |  |  |  |  |  | > 100 µM |  |  |
